Laboratory results taken from PubChem BioAssay AID1963971 (Molecular Pharmacology Branch, DTP, NCI, 2024).

Test system: 953936-095-R-J2-PDC spheroids with HUVEC/MSC, viability
Assay: Anticancer human tumor 953936-095-R-J2-PDC patient-derived cervical squamous cell carcinoma cell line growth inhibition [PI3K]
Conditions: for IC50: curve of first compound; for viability, T/C: stronger effect = lower value
In short: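 Complex 3D spheroids (cancer cells + endothelial HUVEC + mesenchymal stem cells); drug pairs of targeted agent x inavolisib/alpelisib/duvelisib/copanlisib; half-log series from ~Cmax, max 10 microM if Cmax unknown; endpoint viability.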

[1] = second compound 0.0316 µM, first compound 0.000316 µM
[2] = second compound 0.0316 µM, first compound 0.001 µM
[3] = second compound 0.0316 µM, first compound 0.00316 µM
[4] = second compound 0.0316 µM, first compound 0.01 µM
[5] = second compound 0.0316 µM, first compound 0.0316 µM
[6] = second compound 0.0316 µM, first compound 0.1 µM
[7] = second compound 0.1 µM, first compound 0.000316 µM
[8] = second compound 0.1 µM, first compound 0.001 µM
[9] = second compound 0.1 µM, first compound 0.00316 µM
[10] = second compound 0.1 µM, first compound 0.01 µM
[11] = second compound 0.1 µM, first compound 0.0316 µM
[12] = second compound 0.1 µM, first compound 0.1 µM
[13] = second compound 0.316 µM, first compound 0.000316 µM
[14] = second compound 0.316 µM, first compound 0.001 µM
[15] = second compound 0.316 µM, first compound 0.00316 µM
[16] = second compound 0.316 µM, first compound 0.01 µM
[17] = second compound 0.316 µM, first compound 0.0316 µM
[18] = second compound 0.316 µM, first compound 0.1 µM
[19] = second compound 1 µM, first compound 0.000316 µM
[20] = second compound 1 µM, first compound 0.001 µM
[21] = second compound 1 µM, first compound 0.00316 µM
[22] = second compound 1 µM, first compound 0.01 µM
[23] = second compound 1 µM, first compound 0.0316 µM
[24] = second compound 1 µM, first compound 0.1 µM
[25] = second compound 3.16 µM, first compound 0.000316 µM
[26] = second compound 3.16 µM, first compound 0.001 µM
[27] = second compound 3.16 µM, first compound 0.00316 µM
[28] = second compound 3.16 µM, first compound 0.01 µM
[29] = second compound 3.16 µM, first compound 0.0316 µM
[30] = second compound 3.16 µM, first compound 0.1 µM
[31] = second compound 10 µM, first compound 0.000316 µM
[32] = second compound 10 µM, first compound 0.001 µM
[33] = second compound 10 µM, first compound 0.00316 µM
[34] = second compound 10 µM, first compound 0.01 µM
[35] = second compound 10 µM, first compound 0.0316 µM
[36] = second compound 10 µM, first compound 0.1 µM
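Also: spheroids exposed to compounds for seven days before read-out.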

## CC(=O)c1c(C)c2cnc(Nc3ccc(N4CCNCC4)cn3)nc2n(C2CCCC2)c1=O + CC(Nc1ncnc2nc[nH]c12)c1cc2cccc(Cl)c2c(=O)n1-c1ccccc1
Second compound 0.0316 µM
  IC50: > 100 nM
Second compound 0.1 µM
  IC50: > 100 nM
Second compound 0.316 µM
  IC50: > 100 nM
Second compound 1 µM
  IC50: > 100 nM
Second compound 3.16 µM
  IC50: > 100 nM
Second compound 10 µM
  IC50: > 100 nM
[1]
  viability, T/C: 91.6%
[2]
  viability, T/C: 99.4%
[3]
  viability, T/C: 105%
[4]
  viability, T/C: 93.9%
[5]
  viability, T/C: 113%
[6]
  viability, T/C: 99.4%
[7]
  viability, T/C: 93%
[8]
  viability, T/C: 96.4%
[9]
  viability, T/C: 105%
[10]
  viability, T/C: 88.2%
[11]
  viability, T/C: 99.8%
[12]
  viability, T/C: 92.1%
[13]
  viability, T/C: 97.8%
[14]
  viability, T/C: 92.8%
[15]
  viability, T/C: 90.7%
[16]
  viability, T/C: 86.5%
[17]
  viability, T/C: 103%
[18]
  viability, T/C: 83%
[19]
  viability, T/C: 107%
[20]
  viability, T/C: 98.4%
[21]
  viability, T/C: 85.6%
[22]
  viability, T/C: 94%
[23]
  viability, T/C: 81.5%
[24]
  viability, T/C: 80.2%
[25]
  viability, T/C: 81.4%
[26]
  viability, T/C: 74.4%
[27]
  viability, T/C: 78.2%
[28]
  viability, T/C: 83.5%
[29]
  viability, T/C: 74.8%
[30]
  viability, T/C: 70.7%
[31]
  viability, T/C: 59.9%
[32]
  viability, T/C: 68.6%
[33]
  viability, T/C: 55.5%
[34]
  viability, T/C: 69.7%
[35]
  viability, T/C: 65.1%
[36]
  viability, T/C: 51.3%

## CC(C)n1nc(-c2ccc3oc(N)nc3c2)c2c(N)ncnc21 + CC(Nc1ncnc2nc[nH]c12)c1cc2cccc(Cl)c2c(=O)n1-c1ccccc1
Second compound 0.0316 µM
  IC50: 33.8 nM
Second compound 0.1 µM
  IC50: 29 nM
Second compound 0.316 µM
  IC50: 19.3 nM
Second compound 1 µM
  IC50: 30.7 nM
Second compound 3.16 µM
  IC50: 21.8 nM
Second compound 10 µM
  IC50: 11.3 nM
[1]
  viability, T/C: 88.3%
[2]
  viability, T/C: 98.9%
[3]
  viability, T/C: 93.9%
[4]
  viability, T/C: 73.9%
[5]
  viability, T/C: 53.7%
[6]
  viability, T/C: 18.2%
[7]
  viability, T/C: 101%
[8]
  viability, T/C: 95%
[9]
  viability, T/C: 85.1%
[10]
  viability, T/C: 77.1%
[11]
  viability, T/C: 46.3%
[12]
  viability, T/C: 16.5%
[13]
  viability, T/C: 112%
[14]
  viability, T/C: 87.6%
[15]
  viability, T/C: 77.9%
[16]
  viability, T/C: 66.9%
[17]
  viability, T/C: 46.8%
[18]
  viability, T/C: 17.2%
[19]
  viability, T/C: 95.1%
[20]
  viability, T/C: 84.2%
[21]
  viability, T/C: 77.7%
[22]
  viability, T/C: 65%
[23]
  viability, T/C: 56%
[24]
  viability, T/C: 15.9%
[25]
  viability, T/C: 73.3%
[26]
  viability, T/C: 70.5%
[27]
  viability, T/C: 68.8%
[28]
  viability, T/C: 68.8%
[29]
  viability, T/C: 41.1%
[30]
  viability, T/C: 14.6%
[31]
  viability, T/C: 57.7%
[32]
  viability, T/C: 57.3%
[33]
  viability, T/C: 53.3%
[34]
  viability, T/C: 52.8%
[35]
  viability, T/C: 29.9%
[36]
  viability, T/C: 12.8%

## CCCS(=O)(=O)Nc1ccc(F)c(C(=O)c2c[nH]c3ncc(-c4ccc(Cl)cc4)cc23)c1F + CC(Nc1ncnc2nc[nH]c12)c1cc2cccc(Cl)c2c(=O)n1-c1ccccc1
Second compound 0.0316 µM
  IC50: 5740 nM
Second compound 0.1 µM
  IC50: 5730 nM
Second compound 0.316 µM
  IC50: 5560 nM
Second compound 1 µM
  IC50: 5280 nM
Second compound 3.16 µM
  IC50: 5050 nM
Second compound 10 µM
  IC50: 4070 nM
[5]
  viability, T/C: 91.3%
[6]
  viability, T/C: 98.6%
Second compound 0.0316 µM, first compound 0.316 µM
  viability, T/C: 108%
Second compound 0.0316 µM, first compound 1 µM
  viability, T/C: 113%
Second compound 0.0316 µM, first compound 3.16 µM
  viability, T/C: 103%
Second compound 0.0316 µM, first compound 10 µM
  viability, T/C: 0.75%
[11]
  viability, T/C: 102%
[12]
  viability, T/C: 101%
Second compound 0.1 µM, first compound 0.316 µM
  viability, T/C: 99.2%
Second compound 0.1 µM, first compound 1 µM
  viability, T/C: 104%
Second compound 0.1 µM, first compound 3.16 µM
  viability, T/C: 104%
Second compound 0.1 µM, first compound 10 µM
  viability, T/C: 1.22%
[17]
  viability, T/C: 101%
[18]
  viability, T/C: 91.6%
Second compound 0.316 µM, first compound 0.316 µM
  viability, T/C: 97%
Second compound 0.316 µM, first compound 1 µM
  viability, T/C: 102%
Second compound 0.316 µM, first compound 3.16 µM
  viability, T/C: 97.2%
Second compound 0.316 µM, first compound 10 µM
  viability, T/C: 0.93%
[23]
  viability, T/C: 98.9%
[24]
  viability, T/C: 85.1%
Second compound 1 µM, first compound 0.316 µM
  viability, T/C: 96.5%
Second compound 1 µM, first compound 1 µM
  viability, T/C: 98.2%
Second compound 1 µM, first compound 3.16 µM
  viability, T/C: 89.3%
Second compound 1 µM, first compound 10 µM
  viability, T/C: 1.11%
[29]
  viability, T/C: 76.1%
[30]
  viability, T/C: 74.6%
Second compound 3.16 µM, first compound 0.316 µM
  viability, T/C: 78%
Second compound 3.16 µM, first compound 1 µM
  viability, T/C: 101%
Second compound 3.16 µM, first compound 3.16 µM
  viability, T/C: 86.9%
Second compound 3.16 µM, first compound 10 µM
  viability, T/C: 1.48%
[35]
  viability, T/C: 59.5%
[36]
  viability, T/C: 63.5%
Second compound 10 µM, first compound 0.316 µM
  viability, T/C: 63%
Second compound 10 µM, first compound 1 µM
  viability, T/C: 70.1%
Second compound 10 µM, first compound 3.16 µM
  viability, T/C: 63.6%
Second compound 10 µM, first compound 10 µM
  viability, T/C: 1.27%
